The test system of this test is various bacterial pathogens. The test is described as follows: Zone of inhibition assay, positive control. To be noted: 1 μl volume. It counts as cell-based. The source says:
The probiotic organisms described herein, e.g., Bacillus coagulans strain GBI-30 or GANEDEN BC-30™, ATCC Designation Number PTA-6086, promote digestive and oral health and support the immune system. The ability of Bacillus coagulans to inhibit various bacterial pathogens was quantitatively ascertained by use of an in vitro assay. This assay is part of a standardized bacterial pathogen screen (developed by the U.S. Food and Drug Administration (FDA)) and is commercially available on solid support disks (DIFCO® BACTROL® Antibiotic Disks). To perform the assay, potato-dextrose plates)(DIFCO® were initially prepared using standard procedures. The plates were then individually inoculated with the bacteria (approximately 1.5×10^6 CFU) to be tested so as to form a confluent bacterial bed.
Inhibition of microorganisms (e.g. gastrointestinal pathogens) by Bacillus coagulans was subsequently ascertained by placing approximately 1.8×10^6 CFU of Bacillus coagulans in 10 μl of broth or buffer, directly in the center of the potato-dextrose plate with one test locus being approximately 8 mm in diameter per plate. A minimum of three test loci were used for each assay. […] The plates were then incubated for approximately about 18 hr at 30° C., at which time the zones of inhibition were measured. […]

Turning to `O=CCCCC=O` [glutaraldehyde], the inhibition entry (about 18 hr at 30° C.) is listed as “excellent “inhibition””. Also, where the note is “average of three tests”, the “zone of inhibition diameter” value is on record as “approximately 16.2 mm”.

The values above are taken from patent publication US11351206B2, “Probiotic sports nutrition compositions” (Ganeden Biotech, Inc., priority 2011, dated 2022).
